What is called Ki is a measure of affinity in units of concentration, obtained from inhibition or displacement.

The record followed here is patent US5037841A, “1,3-disubstituted pyrrolidines” (Bayer Aktiengesellschaft, priority 1988, dated 1991).

Structures are written as SMILES. Counter-ions that a name gives are not always drawn. Like-named read-outs stand apart in the source and are kept apart here.

The experiment concerns the target T1, 5-HT1 receptor (Bos taurus, UniProt F6Q2H9).
T1 construct: calf hippocampus membrane preparations; from tissue; host or cells: calf hippocampus membranes
T1 sequence (F6Q2H9 1-422): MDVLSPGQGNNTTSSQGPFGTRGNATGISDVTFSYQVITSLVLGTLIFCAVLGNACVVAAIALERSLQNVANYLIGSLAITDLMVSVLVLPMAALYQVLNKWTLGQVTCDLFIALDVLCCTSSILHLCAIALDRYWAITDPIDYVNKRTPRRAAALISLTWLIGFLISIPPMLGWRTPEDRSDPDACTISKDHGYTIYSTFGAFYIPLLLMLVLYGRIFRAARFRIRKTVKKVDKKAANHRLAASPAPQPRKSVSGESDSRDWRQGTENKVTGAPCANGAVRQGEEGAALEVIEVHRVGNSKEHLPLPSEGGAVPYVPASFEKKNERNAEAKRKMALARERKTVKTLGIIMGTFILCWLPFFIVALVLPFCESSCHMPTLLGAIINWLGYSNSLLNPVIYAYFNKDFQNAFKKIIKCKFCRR
Kind of experiment: Affinity for the 5-HT1 receptor: receptor binding studies using calf hippocampus membrane preparations, 3H-serotonin as radioligand. From the text: Affinity for the 5-HT1 receptor
The high affinity of the compound according to the invention for 5-hydroxytryptamine receptors of the subtype […] is represented by way of example in Table 4. The values indicated are data which have been determined from receptor binding studies using calf hippocampus membrane preparations. For this purpose, ^3 H-serotonin was used as a radioactively labelled ligand.

Where [1] appears, read: calf hippocampus membranes, 3H-serotonin radioligand, read-out: Ki.

On to `COc1ccccc1OC1CCN(C(C)C)C1` (stereo not shown) [Comparison, reference compound], for which the Ki (Comparison compound of DE-A 1,964,511, test conditions not restated, read-out: Ki value (comparison compound)) is 1000 nM.
Turning to `N#Cc1ccccc1OC1CCN(CCCCN2C(=O)c3ccccc3S2(=O)=O)C1` (stereo not shown) [Example 1, 3-(2-Cyanophenoxy)-1-[4-(1,1-dioxido-3-oxo-2,3-dihydrobenzisothiazol-2-yl)butyl]-pyrrolidine oxalate], under setting [1], the Ki was found to be 2 nM.
Still for that read-out and setting: the figure for `O=C1c2ccccc2S(=O)(=O)N1CCCCN1CCC(Oc2ccccc2)C1` (stereo not shown) [Example 6] is 9 nM; for `COc1ccccc1OC1CCN(CCCCN2C(=O)c3ccccc3S2(=O)=O)C1` (stereo not shown) [Example 8, 3-(2-methoxyphenoxy)-1-[4-(1,1-dioxido-3-oxo-2,3-dihydrobenzisothiazol-2-yl)butyl]-pyrrolidine] it is 1.3 nM.
Take `COc1cccc(OC2CCN(CCCCN3C(=O)c4ccccc4S3(=O)=O)C2)c1` (stereo not shown) [Example 10, 3-(3-methoxyphenoxy)-1-[4-(1,1-dioxido-3-oxo-2,3-dihydrobenzisothiazol-2-yl)butyl]-pyrrolidine]: the Ki under setting [1] came to 6 nM.
Same read-out and setting: the figure for `NC(=O)c1ccccc1OC1CCN(CCCCN2C(=O)c3ccccc3S2(=O)=O)C1` (stereo not shown) [Example 19, 3-(2-carbamoylphenoxy)-1-[4-(1,1-dioxido-3-oxo-2,3-dihydrobenzisothiazol-2-yl)butyl]-pyrrolidine] is 7 nM.
As to `O=C1c2ccccc2S(=O)(=O)N1CCCCN1CCC(Oc2cccc3ccccc23)C1` (stereo not shown) [Example 23, 3-(1-naphthyloxy)-1-[4-(1,1-dioxido-3-oxo-2,3-dihydrobenzisothiazol-2-yl)butyl]-pyrrolidine], the inhibition constant Ki under setting [1] came out at 0.3 nM.
